{"source": "patent US20210267207A1", "about": "“NOVEL AGROCHEMICAL COMBINATIONS” (priority 2018, published 2021)", "key": {"white ears in paddy": {"test_system": "white ears in paddy", "assay": "Field trial on white ears in paddy, number of white ears per plot", "assay_type": "in vivo"}, "stem borer": {"test_system": "stem borer", "assay": "Field trial of the combination on stem borer in paddy, % mortality", "assay_type": "in vivo", "experimental": "Trials were conducted to test the efficacy of the combination of Chlorantraniliprole+Dinotefuran+Pymetrozine on stem borer in paddy: […]"}, "[1]": {"assay_type": "in vivo", "details": "paddy"}}, "note": "Read-outs that look alike come from different tables or passages of the source.", "data": [{"smiles": "CNC(=N[N+](=O)[O-])NCC1CCOC1", "note": "(racemic) [Dinotefuran, (EZ)—(RS)-1-methyl-2-nitro-3-(tetrahydro-3-furylmethyl)guanidine]", "values": [{"measurement": "Number of white ears per plot 7 DAA", "setting": "white ears in paddy; dose 40 gm. ai/ha", "value": 11}, {"measurement": "Number of white ears per plot 14 DAA", "setting": "white ears in paddy; dose 40 gm. ai/ha", "value": 19}, {"measurement": "Number of white ears per plot 21 DAA", "setting": "white ears in paddy; dose 40 gm. ai/ha", "value": 41}, {"measurement": "% mortality 3 DAA", "setting": "stem borer; dose 40 gm. ai/ha", "value": 65, "unit": "%"}, {"measurement": "% mortality 7 DAA", "setting": "stem borer; dose 40 gm. ai/ha", "value": 75, "unit": "%"}, {"measurement": "% mortality 10 DAA", "setting": "stem borer; dose 40 gm. ai/ha", "value": 75, "unit": "%"}, {"measurement": "% mortality 14 DAA", "setting": "stem borer; dose 40 gm. ai/ha", "value": 70, "unit": "%"}, {"measurement": "Yield", "setting": "[1]; dose 40 gm. ai/ha", "value": 3500}]}, {"smiles": "CNC(=O)c1cc(Cl)cc(C)c1NC(=O)c1cc(Br)nn1-c1ncccc1Cl", "note": "[Chlorantraniliprole, 3-bromo-4′-chloro-1-(3-chloro-2-pyridyl)-2′-methyl-6′-(methylcarbamoyl)pyrazole-5-carboxanilide]", "values": [{"measurement": "Number of white ears per plot 7 DAA", "setting": "white ears in paddy; dose 30 gm. ai/ha", "value": 5}, {"measurement": "Number of white ears per plot 14 DAA", "setting": "white ears in paddy; dose 30 gm. ai/ha", "value": 7}, {"measurement": "Number of white ears per plot 21 DAA", "setting": "white ears in paddy; dose 30 gm. ai/ha", "value": 14}, {"measurement": "% mortality 3 DAA", "setting": "stem borer; dose 30 gm. ai/ha", "value": 3, "unit": "%"}, {"measurement": "% mortality 7 DAA", "setting": "stem borer; dose 30 gm. ai/ha", "value": 7, "unit": "%"}, {"measurement": "% mortality 10 DAA", "setting": "stem borer; dose 30 gm. ai/ha", "value": 7.9, "unit": "%"}, {"measurement": "% mortality 14 DAA", "setting": "stem borer; dose 30 gm. ai/ha", "value": 6.9, "unit": "%"}, {"measurement": "Yield", "setting": "[1]; dose 30 gm. ai/ha", "value": 4322}]}, {"smiles": "CC1=NNC(=O)N(/N=C/c2cccnc2)C1", "note": "[Pymetrozine]", "values": [{"measurement": "Number of white ears per plot 7 DAA", "setting": "white ears in paddy; dose 150 gm. ai/ha", "value": 12}, {"measurement": "Number of white ears per plot 14 DAA", "setting": "white ears in paddy; dose 150 gm. ai/ha", "value": 22}, {"measurement": "Number of white ears per plot 21 DAA", "setting": "white ears in paddy; dose 150 gm. ai/ha", "value": 43}, {"measurement": "% mortality 3 DAA", "setting": "stem borer; dose 150 gm. ai/ha", "value": 75, "unit": "%"}, {"measurement": "% mortality 7 DAA", "setting": "stem borer; dose 150 gm. ai/ha", "value": 88, "unit": "%"}, {"measurement": "% mortality 10 DAA", "setting": "stem borer; dose 150 gm. ai/ha", "value": 89, "unit": "%"}, {"measurement": "% mortality 14 DAA", "setting": "stem borer; dose 150 gm. ai/ha", "value": 79, "unit": "%"}, {"measurement": "Yield", "setting": "[1]; dose 150 gm. ai/ha", "value": 3600}]}]}
